The values that follow come from PubChem BioAssay (NCI).

Among the test systems are MALME-3M melanoma; SF-295 CNS; RXF 393 renal; OVCAR-4 ovarian; SW-620 colon; UO-31 renal; MDA-N; SF-268 CNS; KM12 colon; DU-145 prostate; SK-MEL-2 melanoma; NCI-H226 lung; 786-0 renal; HOP-62 NSCLC; CAKI-1 renal; SK-MEL-28 melanoma; NCI-H522 lung; A498 renal; EKVX NSCLC; HCT-116 colon.
What all share (assay): NCI anticancer screen, dose series, 48 h

The structures appear in SMILES notation.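 These data come from cells grown in 96-well plates and exposed to compound for 48 hours at five concentrations. At the TGI there is no net growth.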

As to `COC1(OC)CCCc2c1no[n+]2[O-]`, the TGI with MALME-3M melanoma, in the assay on SF-295 CNS, in the assay with RXF 393 renal, with OVCAR-4 ovarian, with SW-620 colon and in the assay on UO-31 renal was greater than 100 µM in each case. The TGI in the assay on MDA-N, with SF-268 CNS, in the assay on KM12 colon, with DU-145 prostate, in the assay on SK-MEL-2 melanoma and with NCI-H226 lung was greater than 100 µM in each case. Also, the TGI in the assay with 786-0 renal, in the assay on HOP-62 NSCLC, in the assay on CAKI-1 renal, in the assay with SK-MEL-28 melanoma, in the assay with NCI-H522 lung and in the assay with A498 renal was greater than 100 µM throughout. For the same compound, the TGI in the assay on EKVX NSCLC and in the assay with HCT-116 colon was greater than 100 µM each time.

On to `NCC(=O)Nc1ccc(S(=O)(=O)O)c2cc(S(=O)(=O)O)cc(S(=O)(=O)O)c12`, for which the TGI with MALME-3M melanoma, in the assay on SF-295 CNS, in the assay with RXF 393 renal, in the assay with OVCAR-4 ovarian, in the assay on SW-620 colon and in the assay with UO-31 renal was greater than 100 µM each time. Also, the TGI in the assay with MDA-N, in the assay on SF-268 CNS, in the assay with KM12 colon, with DU-145 prostate, in the assay on SK-MEL-2 melanoma and in the assay with NCI-H226 lung was greater than 100 µM each time. Also, the TGI in the assay on 786-0 renal, in the assay with HOP-62 NSCLC, in the assay on CAKI-1 renal, in the assay on SK-MEL-28 melanoma, in the assay on NCI-H522 lung and in the assay on A498 renal was greater than 100 µM throughout. Also, the TGI in the assay on EKVX NSCLC and in the assay on HCT-116 colon was greater than 100 µM throughout.

For the compound `CN(C)/N=C1/CCC(C(F)(F)F)(C(F)(F)F)O1`, the TGI is 61.1 µM in the assay on MALME-3M melanoma; greater than 100 µM in the assay with SF-295 CNS; greater than 100 µM in the assay with RXF 393 renal; greater than 100 µM in the assay on OVCAR-4 ovarian; greater than 100 µM with SW-620 colon; 98.2 µM in the assay on UO-31 renal. Moreover, the TGI was greater than 100 µM in the assay with MDA-N; greater than 100 µM in the assay with SF-268 CNS; 48.8 µM in the assay with KM12 colon; greater than 100 µM in the assay with DU-145 prostate; 90.6 µM in the assay on SK-MEL-2 melanoma; 84 µM in the assay on NCI-H226 lung. Moreover, the TGI in the assay on 786-0 renal is 93.4 µM; in the assay with HOP-62 NSCLC, 85 µM; with CAKI-1 renal, greater than 100 µM; in the assay with SK-MEL-28 melanoma it was greater than 100 µM; in the assay with NCI-H522 lung, 99.3 µM; in the assay with A498 renal, 53.1 µM. For the same compound, the values for the TGI with EKVX NSCLC and with HCT-116 colon were greater than 100 µM and 94 µM, respectively.

On to `CCOC(=O)/C=C(\C(=O)OCC)n1ccc(=O)n(Cc2cn(CCCCOC(C)=O)nn2)c1=O`, for which the TGI in the assay on MALME-3M melanoma was 4.83 µM; with SF-295 CNS, greater than 62.1 µM; in the assay on RXF 393 renal it was 47.4 µM; in the assay on OVCAR-4 ovarian it was 48.2 µM; in the assay on SW-620 colon it was 8.38 µM; with UO-31 renal, 28.6 µM. For the same compound, the TGI in the assay with MDA-N worked out at 42.6 µM; in the assay on SF-268 CNS it was 36.9 µM; in the assay on KM12 colon it was 31.5 µM; with DU-145 prostate, 45.4 µM; in the assay on SK-MEL-2 melanoma, 37 µM; with NCI-H226 lung, 32.7 µM. In addition, the TGI with 786-0 renal was greater than 51.1 µM; in the assay on HOP-62 NSCLC, 41.2 µM; with CAKI-1 renal, 8.57 µM; with SK-MEL-28 melanoma, 21.2 µM; in the assay on NCI-H522 lung, 4.03 µM; in the assay on A498 renal, 32 µM. For the same compound, the figures for the TGI in the assay on EKVX NSCLC and in the assay on HCT-116 colon were 31.4 µM and greater than 47.4 µM, respectively.

For `CCOc1nnnc2nc[nH]c12`, the TGI in the assay on MALME-3M melanoma, in the assay on SF-295 CNS, in the assay on RXF 393 renal, in the assay on OVCAR-4 ovarian, in the assay on SW-620 colon and in the assay with UO-31 renal was greater than 100 µM each time. In addition, the TGI in the assay on MDA-N, with SF-268 CNS, in the assay on KM12 colon, in the assay on DU-145 prostate, with SK-MEL-2 melanoma and with NCI-H226 lung was greater than 100 µM each time. The TGI with 786-0 renal, in the assay with HOP-62 NSCLC, with CAKI-1 renal, in the assay on SK-MEL-28 melanoma, with NCI-H522 lung and with A498 renal was greater than 100 µM in each case. Further, the TGI in the assay on EKVX NSCLC and in the assay with HCT-116 colon was greater than 100 µM in each case.

Turning to `CC1C=CN(N(C)C)C2=C1C(=O)c1cnccc1C2=O` (stereo not given), the TGI was determined as 1.49 µM in the assay on MALME-3M melanoma; 2.18 µM in the assay with SF-295 CNS; 1.46 µM in the assay on RXF 393 renal; 2.03 µM with OVCAR-4 ovarian; 1.83 µM in the assay with SW-620 colon; 0.39 µM in the assay on UO-31 renal. Further, the TGI turned out to be 0.278 µM in the assay on MDA-N; 5.21 µM in the assay with SF-268 CNS; 2.8 µM with KM12 colon; 1.39 µM in the assay on DU-145 prostate; 4.02 µM in the assay with SK-MEL-2 melanoma; 2.14 µM in the assay with NCI-H226 lung. Also, the TGI with 786-0 renal came to 0.538 µM; in the assay with HOP-62 NSCLC, 1.42 µM; in the assay on CAKI-1 renal, 0.597 µM; with SK-MEL-28 melanoma, 2.07 µM; with NCI-H522 lung, 0.55 µM; in the assay with A498 renal, 2.66 µM. Besides, the TGI came out at 2.07 µM in the assay on EKVX NSCLC and 1.48 µM in the assay on HCT-116 colon.

In the case of `COC(=O)/C=C\C(C#N)(C#N)N=Cc1cc(Br)cs1`, the TGI came out at 3.47 µM in the assay on MALME-3M melanoma; 31.8 µM in the assay on SF-295 CNS; 5.38 µM in the assay on RXF 393 renal; 27.1 µM in the assay on OVCAR-4 ovarian; 2.72 µM in the assay with SW-620 colon; 5.01 µM in the assay with UO-31 renal. In addition, the TGI came to 6.62 µM in the assay on MDA-N; 16.5 µM with SF-268 CNS; 48 µM with KM12 colon; 19.1 µM in the assay with DU-145 prostate; 25.5 µM in the assay with SK-MEL-2 melanoma; 35.3 µM with NCI-H226 lung. Further, the TGI with 786-0 renal worked out at 3.78 µM; with HOP-62 NSCLC, 33 µM; in the assay with CAKI-1 renal, 7.53 µM; in the assay with SK-MEL-28 melanoma, 10.4 µM; in the assay on NCI-H522 lung it was 2.9 µM; in the assay on A498 renal it was 32.9 µM. Further, the results for the TGI in the assay with EKVX NSCLC and in the assay on HCT-116 colon were 18.7 µM and 3.72 µM, respectively.

Turning to `Cc1ncc([N+](=O)[O-])n1CCNCCCCn1ccnc1[N+](=O)[O-]`, the TGI with MALME-3M melanoma, with SF-295 CNS, with RXF 393 renal, in the assay on OVCAR-4 ovarian, with SW-620 colon and in the assay with UO-31 renal was greater than 100 µM throughout. The TGI in the assay on MDA-N, with SF-268 CNS, with KM12 colon, in the assay with DU-145 prostate, in the assay with SK-MEL-2 melanoma and in the assay on NCI-H226 lung was greater than 100 µM throughout. In addition, the TGI with 786-0 renal, in the assay on HOP-62 NSCLC, in the assay on CAKI-1 renal, in the assay on SK-MEL-28 melanoma, in the assay with NCI-H522 lung and in the assay on A498 renal was greater than 100 µM each time. Also, the TGI with EKVX NSCLC and in the assay with HCT-116 colon was greater than 100 µM in each case.
